Data taken from patent US20090030037A1, “Sustained Release Formulation and Dosing Schedules of Leukotriene Synthesis Inhibitor for Human Therapy” (deCODE Genetics ehf., priority 2005, published 2009).

Tests used:
MPO = assay: Study DG-031-203: plasma MPO; assay type: in vivo, human; details: 250 mg TID, 6 hours after intake
Protocol: (§1) The study also collected information on the dose-related effect of DG-031 on capacity for LTB4 production (ex vivo), plasma MPO, and serum-CRP. […] The pattern observed supported a concentration dependent pharmacologic effect of DG-031 on capacity for LTB4 production measured ex vivo. The effects on LTB4 production amounted to a 30% (p=0.016) and 25% (p=0.094) reduction with the 375 mg BID and 250 mg TID doses, respectively.

Amyloid A = assay: Study DG-031-201: amyloid A in serum; assay type: in vivo, human; details: difference visit 2 to 5; 500 and 750 mg/day vs placebo
Protocol: Genet. 2004). Apart from FLAP, allele A of the SNP SG12S25 in the LTA4 hydrolase gene, another gene in the LT pathway, is also associated with MI, as described in PCT application no. PCT/US03/32556 and PCT/US04/30582 incorporated by reference.
Patients who met the study eligibility criteria were enrolled and randomized into 3 different dose-level groups: (1) 64 patients on 250 mg/day therapy with DG-031 (250 mg q.d.), vs placebo; (2) 64 patients on 500 mg/day therapy with DG-031 (250 mg b.i.d.) vs placebo; and (3) 63 patients on 750 mg/day therapy with DG-031 (250 mg t.i.d.) vs placebo. […] All patients received 3 tablets per day. Treatment periods, 4 weeks in duration each, were separated by a 2-week washout period. The placebo tablets were identical in shape, color, form and taste to the active tablets except that they contained no active drug ingredients. Treatment with DG-031 or placebo was in addition to the subject's standard care, including all medications and treatment plan as prescribed by the subject's cardiologist prior to enrolment. […]
All data were analyzed according to a pre-established statistical analysis plan (SAP) and by intention-to-treat (ITT). […] The difference between DG-031 and placebo treatment was the primary outcome, assessed separately for each of the biomarkers. […]

CRP = assay: Study DG-031-203: serum CRP; assay type: in vivo, human
Protocol: as §1

[1] = Population pharmacokinetic analysis (studies DG-031-201, DG-031-203); assay type: in vivo, human
Protocol: Preliminary population pharmacokinetic (PK) analysis was also carried out based on clinical studies DG-031-201 and DG-031-203. Based on visual inspection of the individual and mean time course of DG-031 concentrations, a simple one compartmental disposition model following first order oral absorption, and an absorption lag time was fit to the data. A mixed effects modeling approach was used. The pharmacokinetic model parameters (fixed effects) included oral clearance (CL), distribution volume (V), oral absorption (ka), and absorption lag (tiag). The statistical model includes inter-individual random effects as well as a residual error term. All inter-subject random effect parameters (it's) and residual error terms (&) are assumed to be normally distributed with mean of zero and variance o2 and a2, respectively. Random effects on all pharmacokinetic model parameters were explored. Maximum likelihood estimates of the structural (0's) and statistical model parameters were estimated using an approximation to the mixed effect log-likelihood as implemented in the NONMEM program (NONMEM Version Vi).
The influence of patient characteristics (covariates) on pharmacokinetic parameters was explored. Age, gender, body weight, and CrCL (creatinine clearance) were included in the model as covariates if warranted.
Model selection will be done on the basis of the log-likelihood criterion (p<0.05) and visual inspection of goodness-of-fit plots. The difference in −2 times the log of the likelihood (−2LL) between a full and reduced model is asymptotically χ^2 distributed with degrees of freedom equal to the difference in number of parameters between the two models. For instance, a decrease of more than 3.84 in −2LL is considered significant at the p<0.05 level for 1 additional parameter. Standard errors of the parameter estimates are approximated using the asymptotic covariance matrix.

[2] = healthy volunteers, total daily dose 100-1000 mg, less than 14 days; cited from earlier work

Question: Which results are given for O=C(O)[C@@H](c1ccc(OCc2ccc3ccccc3n2)cc1)C1CCCC1 [DG-031, (R)-(+)-alpha-cyclopentyl-4-(2-quinolinylmethoxy)-Benzeneacetic acid]?
Answer: Reduction of plasma MPO levels (MPO): 37%; Carry-over effect, Amyloid A (Amyloid A): −0.14; Reduction in CRP levels, high CRP group (CRP; 250 mg TID, CRP above median 1.4 mg/L at entry): 48%; CRP, change (CRP; 250 mg TID, Study 203, 1 wk): 37% (St. 203); Reduction of serum CRP (CRP; 250 mg TID, after one week, follow-up study (203), all subjects): 38%; Reduction in CRP levels, high CRP group (CRP; 375 mg BID, CRP above median at entry, p=0.16): 31%; CRP, change (CRP; 375 mg BID, Study 203): No effect; Change in serum CRP (CRP; 375 mg BID, one week, all subjects): −1%; CRP, change (CRP; 375 mg QD, Study 203, 1 wk): −28%; PK linearity ([1]; 250 mg to 1500 mg administered daily): linear PK; oral CL ([1]; 90 kg patient): 5.86 L/h; Accumulation ([1]; BID dosing): 12%; V (distribution volume) ([1]; human, plasma, oral): 32 L; V, inter-subject CV % ([1]; human, plasma, oral): 44%; half-life ([1]; human, plasma, oral, MI patients, estimated, read-out: Terminal elimination half-life (converted)): ~4 h; Effect of body weight on CL ([1]; in vivo): minor effects; Safety and tolerability [2]: safe and well tolerated
